Laboratory results as given in ChEMBL document CHEMBL5154788 (Eur J Med Chem, 2022).
≈ marks a conversion by molar mass, not a printed value.

Columns and labels:
[1] = target: Transient receptor potential cation channel subfamily V member 1 (Homo sapiens, UniProt Q8NER1); assay: Antagonist activity at human TRPV1 expressed in CHO cells assessed as inhibition of capsaicin-induced Ca2+ influx incubated for 30 mins by FLIPR method; type: cell-based
[2] = Toxicity in rat assessed as increase in body temperature at 30 mg/kg, po measured for 180 mins by electric probe thermometer analysis; type: organism-based; settings: in vivo, 3 h
[3] = Toxicity in rat assessed as effect on body temperature at 10 to 100 mg/kg, po measured for 120 mins by electric probe thermometer analysis; type: organism-based; settings: in vivo, 2 h, dose 10-100 mg/kg
[4] = Half life in Sprague-Dawley rat at 10 mg/kg, iv measured after 12 hrs by UPLC-QTOF/MS analysis; type: ADME, organism-based; settings: in vivo
[5] = Elimination rate constant half life (k10) in Sprague-Dawley rat at 20 mg/kg, po measured after 12 hrs by UPLC-QTOF/MS analysis; type: ADME, organism-based; settings: in vivo, read-out: beta t1/2 (converted)
[6] = Volume of distribution in Sprague-Dawley rat at 20 mg/kg, po measured after 12 hrs post dose by UPLC-QTOF/MS analysis; type: ADME, organism-based; settings: in vivo
[7] = Tmax in Sprague-Dawley rat at 20 mg/kg, po measured after 12 hrs by UPLC-QTOF/MS analysis; type: ADME, organism-based; settings: in vivo
[8] = Cmax in Sprague-Dawley rat at 20 mg/kg, po measured after 12 hrs by UPLC-QTOF/MS analysis; type: ADME, organism-based; set-up: dose 20 mg/kg, time 12 hrs, route po; settings: in vivo
[9] = Clearance in Sprague-Dawley rat at 10 mg/kg, iv measured after 12 hrs by UPLC-QTOF/MS analysis; type: ADME, organism-based; settings: in vivo
[10] = Clearance in Sprague-Dawley rat at 20 mg/kg, po measured after 12 hrs by UPLC-QTOF/MS analysis; type: ADME, organism-based; settings: in vivo
[11] = AUC (0 to infinity) in Sprague-Dawley rat at 10 mg/kg, iv by UPLC-QTOF/MS analysis; type: ADME, organism-based; set-up: time infinity, dose 10 mg/kg, route iv; settings: in vivo
[12] = AUC (0 to infinity) in Sprague-Dawley rat at 20 mg/kg, po by UPLC-QTOF/MS analysis; type: ADME, organism-based; set-up: time infinity, dose 20 mg/kg, route po; settings: in vivo
[13] = MRT in Sprague-Dawley rat at 10 mg/kg, iv measured after 12 hrs by UPLC-QTOF/MS analysis; type: ADME, organism-based; settings: in vivo
[14] = MRT in Sprague-Dawley rat at 20 mg/kg, po measured after 12 hrs by UPLC-QTOF/MS analysis; type: ADME, organism-based; settings: in vivo
[15] = Oral bioavailability in Sprague-Dawley rat at 20 mg/kg measured after 12 hrs by UPLC-QTOF/MS analysis; type: ADME, organism-based; settings: in vivo
[16] = Drug concentration in rat brain at 10 mg/kg, iv measured after 0.5 hrs by HPLC analysis; type: ADME, organism-based; settings: read-out: Ct
[17] = Drug concentration in rat plasma at 10 mg/kg, iv measured after 0.5 hrs by HPLC analysis; type: ADME, organism-based
[18] = Ratio of drug level in brain to plasma in rat at 10 mg/kg, iv measured after 0.5 hrs by HPLC analysis; type: ADME, organism-based; settings: read-out: BPR
[19] = Aqueous solubility of compound at pH 7.4 incubated for 2 hrs by LC-UV/MS analysis; type: physicochemical; settings: buffer
[20] = target: T1, Transient receptor potential cation channel subfamily V member 3 (Homo sapiens, UniProt Q8NET8); assay: Antagonist activity against human TRPV3 expressed in HEK293 cells assessed as inhibition of 2-APb induced intracellular calcium accumulation incubated for 30 mins by FLIPR assay; type: cell-based
T1 sequence (Q8NET8 whole entry): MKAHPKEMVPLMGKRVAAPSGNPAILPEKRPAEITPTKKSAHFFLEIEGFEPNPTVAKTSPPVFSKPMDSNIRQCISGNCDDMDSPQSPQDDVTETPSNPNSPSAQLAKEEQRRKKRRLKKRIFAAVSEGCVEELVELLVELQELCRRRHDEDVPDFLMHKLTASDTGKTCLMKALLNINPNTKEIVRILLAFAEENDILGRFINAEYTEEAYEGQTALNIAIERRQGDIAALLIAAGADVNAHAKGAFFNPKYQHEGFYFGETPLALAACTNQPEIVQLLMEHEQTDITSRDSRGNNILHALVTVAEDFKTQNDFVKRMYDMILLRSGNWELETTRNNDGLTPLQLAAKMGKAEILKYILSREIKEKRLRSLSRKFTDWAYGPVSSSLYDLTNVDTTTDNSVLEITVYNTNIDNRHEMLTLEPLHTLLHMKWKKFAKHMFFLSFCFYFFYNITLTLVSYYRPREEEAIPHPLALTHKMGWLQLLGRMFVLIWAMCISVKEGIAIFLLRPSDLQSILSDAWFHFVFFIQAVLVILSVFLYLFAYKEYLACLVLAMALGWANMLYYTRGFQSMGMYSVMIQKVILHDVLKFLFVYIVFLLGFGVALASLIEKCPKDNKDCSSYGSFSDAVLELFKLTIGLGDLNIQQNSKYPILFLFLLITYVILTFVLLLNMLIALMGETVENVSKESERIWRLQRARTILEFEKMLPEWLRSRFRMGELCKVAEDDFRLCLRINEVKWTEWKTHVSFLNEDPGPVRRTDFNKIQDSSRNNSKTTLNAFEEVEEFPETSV

[21] = target: Transient receptor potential cation channel subfamily A member 1 (Homo sapiens, UniProt O75762); assay: Antagonist activity against human TRPA1 expressed in HEK293 cells assessed as inhibition of AITC-induced intracellular calcium accumulation incubated for 30 mins by FLIPR assay; type: cell-based
Transient receptor potential cation channel subfamily A member 1, sequence (O75762 whole entry): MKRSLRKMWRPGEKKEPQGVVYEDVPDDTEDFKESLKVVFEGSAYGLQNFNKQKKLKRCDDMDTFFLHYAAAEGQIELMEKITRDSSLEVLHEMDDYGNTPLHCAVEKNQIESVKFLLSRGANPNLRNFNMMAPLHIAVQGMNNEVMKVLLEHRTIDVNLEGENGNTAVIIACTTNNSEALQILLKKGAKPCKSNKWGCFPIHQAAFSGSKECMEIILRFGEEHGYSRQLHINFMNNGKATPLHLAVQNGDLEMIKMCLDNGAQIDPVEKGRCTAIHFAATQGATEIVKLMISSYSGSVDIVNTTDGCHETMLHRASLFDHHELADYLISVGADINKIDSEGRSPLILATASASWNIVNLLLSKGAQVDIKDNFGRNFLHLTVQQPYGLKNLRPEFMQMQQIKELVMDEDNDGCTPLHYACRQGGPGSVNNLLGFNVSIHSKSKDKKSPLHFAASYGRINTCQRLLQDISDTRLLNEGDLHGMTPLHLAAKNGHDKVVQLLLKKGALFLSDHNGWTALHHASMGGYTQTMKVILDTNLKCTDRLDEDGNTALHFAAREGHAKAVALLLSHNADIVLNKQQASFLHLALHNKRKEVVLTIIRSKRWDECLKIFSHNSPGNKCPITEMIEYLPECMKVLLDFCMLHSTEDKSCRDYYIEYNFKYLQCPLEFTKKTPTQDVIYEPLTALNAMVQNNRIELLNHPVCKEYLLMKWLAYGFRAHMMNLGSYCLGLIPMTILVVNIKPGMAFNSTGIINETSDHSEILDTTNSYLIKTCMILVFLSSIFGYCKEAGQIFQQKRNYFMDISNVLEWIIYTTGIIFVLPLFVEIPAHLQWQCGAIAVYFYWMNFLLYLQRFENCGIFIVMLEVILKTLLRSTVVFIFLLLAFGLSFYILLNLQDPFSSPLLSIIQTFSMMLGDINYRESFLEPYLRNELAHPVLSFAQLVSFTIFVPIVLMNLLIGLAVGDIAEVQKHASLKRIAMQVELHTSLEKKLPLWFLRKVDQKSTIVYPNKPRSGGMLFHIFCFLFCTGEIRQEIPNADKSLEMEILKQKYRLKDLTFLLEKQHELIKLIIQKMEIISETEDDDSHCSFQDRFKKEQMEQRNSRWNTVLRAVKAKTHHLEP

[22] = Elimination rate constant (K10) in Sprague-Dawley rat at 10 mg/kg, iv measured after 12 hrs by UPLC-QTOF/MS analysis; type: ADME, organism-based; settings: in vivo
[23] = Elimination rate constant (K10) in Sprague-Dawley rat at 20 mg/kg, po measured after 12 hrs by UPLC-QTOF/MS analysis; type: ADME, organism-based; settings: in vivo
[24] = target: Transient receptor potential cation channel subfamily M member 8 (Homo sapiens, UniProt Q7Z2W7); assay: Antagonist activity against human TRPM8 expressed in HEK293 cells assessed as inhibition of […]-gated currents by whole cell patch clamp electrophysiology; type: cell-based
Transient receptor potential cation channel subfamily M member 8, sequence (Q7Z2W7 whole entry): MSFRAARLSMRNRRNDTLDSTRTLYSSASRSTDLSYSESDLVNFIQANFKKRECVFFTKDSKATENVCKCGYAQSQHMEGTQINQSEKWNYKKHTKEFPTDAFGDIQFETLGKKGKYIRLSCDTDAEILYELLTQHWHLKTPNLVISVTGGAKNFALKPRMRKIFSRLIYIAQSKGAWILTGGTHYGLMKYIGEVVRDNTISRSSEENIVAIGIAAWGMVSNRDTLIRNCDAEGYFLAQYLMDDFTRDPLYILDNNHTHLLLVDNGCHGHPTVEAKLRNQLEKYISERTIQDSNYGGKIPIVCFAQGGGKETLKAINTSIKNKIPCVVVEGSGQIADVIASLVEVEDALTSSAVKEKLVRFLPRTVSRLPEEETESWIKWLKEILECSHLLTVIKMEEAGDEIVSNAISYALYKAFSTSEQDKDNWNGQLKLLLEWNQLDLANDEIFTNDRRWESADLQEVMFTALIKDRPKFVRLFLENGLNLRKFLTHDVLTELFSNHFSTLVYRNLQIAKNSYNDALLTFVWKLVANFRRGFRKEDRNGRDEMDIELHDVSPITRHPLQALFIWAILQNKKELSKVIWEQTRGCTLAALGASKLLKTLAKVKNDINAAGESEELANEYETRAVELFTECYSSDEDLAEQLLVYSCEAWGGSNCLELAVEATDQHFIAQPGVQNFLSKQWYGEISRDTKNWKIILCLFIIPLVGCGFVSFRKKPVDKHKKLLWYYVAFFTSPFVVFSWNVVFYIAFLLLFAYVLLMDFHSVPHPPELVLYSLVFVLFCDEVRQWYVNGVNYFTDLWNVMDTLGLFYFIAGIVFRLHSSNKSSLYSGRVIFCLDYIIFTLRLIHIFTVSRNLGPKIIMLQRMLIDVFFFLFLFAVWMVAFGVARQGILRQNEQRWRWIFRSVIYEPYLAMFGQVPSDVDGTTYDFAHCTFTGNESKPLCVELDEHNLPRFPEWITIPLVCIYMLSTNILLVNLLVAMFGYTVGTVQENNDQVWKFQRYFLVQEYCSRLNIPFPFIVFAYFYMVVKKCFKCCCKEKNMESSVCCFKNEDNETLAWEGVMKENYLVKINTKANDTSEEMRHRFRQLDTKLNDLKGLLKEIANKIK

Transient receptor potential cation channel subfamily V member 1, sequence (Q8NER1 whole entry): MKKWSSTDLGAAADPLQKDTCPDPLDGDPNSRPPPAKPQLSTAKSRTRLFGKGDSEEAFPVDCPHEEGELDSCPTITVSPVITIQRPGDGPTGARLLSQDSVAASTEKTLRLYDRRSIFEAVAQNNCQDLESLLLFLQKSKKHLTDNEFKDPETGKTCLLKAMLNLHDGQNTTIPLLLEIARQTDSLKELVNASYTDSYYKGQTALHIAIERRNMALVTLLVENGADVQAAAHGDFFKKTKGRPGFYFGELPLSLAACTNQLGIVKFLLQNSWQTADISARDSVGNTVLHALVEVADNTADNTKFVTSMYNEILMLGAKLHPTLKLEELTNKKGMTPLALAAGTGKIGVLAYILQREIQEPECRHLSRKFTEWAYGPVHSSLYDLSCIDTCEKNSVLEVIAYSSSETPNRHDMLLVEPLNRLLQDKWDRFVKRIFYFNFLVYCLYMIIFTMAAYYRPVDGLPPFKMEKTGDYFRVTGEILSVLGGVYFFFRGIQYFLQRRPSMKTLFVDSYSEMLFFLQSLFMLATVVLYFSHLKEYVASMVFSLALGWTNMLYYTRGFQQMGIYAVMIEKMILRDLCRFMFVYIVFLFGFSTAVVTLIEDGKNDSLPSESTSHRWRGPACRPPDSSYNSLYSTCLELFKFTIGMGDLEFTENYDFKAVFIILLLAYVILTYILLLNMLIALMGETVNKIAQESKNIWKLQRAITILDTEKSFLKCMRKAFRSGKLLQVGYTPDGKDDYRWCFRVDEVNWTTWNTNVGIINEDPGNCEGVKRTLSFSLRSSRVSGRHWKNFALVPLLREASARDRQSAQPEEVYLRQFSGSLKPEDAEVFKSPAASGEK

For `O=C(Nc1cccc2cnccc12)N1CCC[C@H]1c1nc(-c2cccc(F)c2)cs1`, the IC50 [1] was 0.0806 µM.

With `CC(C)c1cccc(NC(=O)N2CCC[C@H]2c2ncc(-c3ccccc3)s2)c1` the IC50 [1] was 0.00266 µM, the Activity [2] was “Non-Toxic” and the Activity [3] was “Non-Toxic”. It also gave a half-life [4] of 6.36 min, a half-life [5] of 31.6 min and a Vd [6] of 16 L/kg. The Tmax [7] was 42.7 min, the Cmax [8] was 311 ng/mL and the clearance [9] was 400 mL/min/kg. For the same compound, the clearance [10] was 367 mL/min/kg, the AUC [11] was 495.955 ng·h/mL and the AUC [12] was 598.873 ng·h/mL. The MRT [13] was 9.18 min, the MRT [14] was 85.6 min and the bioavailability [15] was 60%. The concentration at 0.5 h [16] was 2310 ng/g, the concentration at 0.5 h [17] was 1400 ng/g and the Kp at 0.5 h [18] was 1.66. The solubility at 2 h [19] was 26 µg/mL (≈ 66.4 µM), the IC50 [20] was > 100 µM and the IC50 [21] was > 100 µM. For the same compound, the k el at 12 h [22] was 0.00335 s⁻¹ and the k el at 12 h [23] was 0.000315 s⁻¹.

Compound `O=C(Nc1cccc2cnccc12)N1CCC[C@H]1c1nc(-c2ccccc2)cs1` has an IC50 [1] of 0.0676 µM.

`CC(C)c1ccccc1NC(=O)N1CCC[C@H]1c1ncc(-c2ccccc2)s1` gave an IC50 [1] of 0.00532 µM.

`O=C(Nc1ccccc1[N+](=O)[O-])N1CCC[C@H]1c1ncc(-c2ccccc2)s1` gave an IC50 [1] of 0.0124 µM.

In the case of `COc1ccccc1NC(=O)N1CCC[C@H]1c1nc(-c2ccc(F)cc2)cs1`, the IC50 [1] is reported as 0.00571 µM and the Activity [2] is reported as “Toxic”.

In the case of `O=C(Nc1cccc2cnccc12)N1CCC[C@H]1c1nc(-c2ccc(F)cc2)cs1`, the IC50 [1] is reported as 0.0243 µM.

Compound `O=C(Nc1ccc(Cl)cc1)N1CCC[C@H]1c1nc(-c2ccc(F)cc2)cs1` has an IC50 [1] of 0.0107 µM.

Work on `O=C(Nc1ccc(F)cc1)N1CCC[C@H]1c1nc(-c2ccc(F)cc2)cs1` yielded an IC50 [1] of 0.0246 µM.

`Cc1ccc(C)c(NC(=O)N2CCC[C@H]2c2nc(-c3ccccc3)cs2)c1` showed an IC50 [1] of 0.0444 µM.

Compound `O=C(Nc1ccc(F)cc1)N1CCC[C@H]1c1nc(-c2ccccc2)cs1` has an IC50 [1] of 0.0316 µM.

`Cc1ccc(NC(=O)N2CCC[C@H]2c2ncc(-c3ccccc3)s2)c([N+](=O)[O-])c1` gave an IC50 [1] of 0.0239 µM.

For `O=C(Nc1ccccc1Br)N[C@@H]1CCN(c2ccc(C(F)(F)F)cn2)C1` [SB-705498], the IC50 [1] was 0.00924 µM, the Activity [2] was “Non-Toxic” and the Kp at 0.5 h [18] was 0.5. It also gave an IC50 [24] of 1.6 µM.
